Measured values: publication PMC7694175, “Kunitz-Type Peptides from the Sea Anemone Heteractis crispa Demonstrate Potassium Channel Blocking and Anti-Inflammatory Activities” (Biomedicines, 2020)
Read-outs that look alike come from different tables or passages of the source. Bridge positions count the residues as written; N and C are the ends. Ends that are not written are not given here.

What was measured:
TNF-α = TNF-α ELISA in blood of mice with carrageenan-induced inflammation; type: in vivo, ICR mice; conditions: mouse blood 24 h after carrageenan, indomethacin 5 mg/kg oral
Protocol: Tests were performed on male ICR mice, with six individuals in each group. A peptide sample was dissolved in sterile saline and administered intravenously at doses of 0.1 and 1.0 mg/kg. Control animals received an equivalent volume of sterile saline. Indomethacin at a dose of 5 mg/kg was used as a positive control and administered orally to animals. Each mouse received 20 μL of a 1% solution of carrageenan in the hind paw pad after 30 min in the case of saline and tested peptide and after 60 min in the case of indomethacin. Then, the resulting edema was measured at several time points (1, 3, 5, and 24 h) using a plethysmometer (Ugo Basile, Gemonio (VA), Italy).
Animals were terminally anaesthetized with sodium pentobarbital ([…] i.p., Euthatal, Merial Animal Health, Essex, UK) 24 h after carrageenan injection. Then the thoracic cavity was opened and blood was collected in tubes with the ethylenediaminetetraacetic acid (EDTA) directly from the right atrium of the heart. The whole blood was centrifuged at 2.5 × 10^3× g for 10 min to remove cells; the blood serum was then aliquoted and stored at −20 °C. These samples were analyzed for TNF-α in the enzyme-linked immunosorbent assay (ELISA) using a diagnostic kit according to the manufacturer’s protocol (CUSABIO BIOTECH Co., Ltd., Houston, TX, USA).

Kv1.1 = conditions: cited from earlier work
Source text: (§1) Kalicludines block Kv1.2 in µM concentratio ...

Kv1.6 = system: Kv1.6; parameters: key to IC50 Kv1.6 (class symbol): -: no or weak activity; conditions: cited from earlier work
Source text: Table 1 Kunitz-type voltage-gated potassium channel toxins from animal venoms. | column: IC50 (nM) / Kv1.6

Shaker IR = system: Shaker IR; parameters: key to IC50 Shaker IR (class symbol): -: no or weak activity; conditions: cited from earlier work
trypsin = conditions: cited from earlier work
Kv1.3 = system: Kv1.3; parameters: key to IC50 Kv1.3 (class symbol): -: no or weak activity; conditions: cited from earlier work
Kv1.2 = system: Kv1.2; parameters: key to IC50 Kv1.2 (class symbol): -: no or weak activity; conditions: cited from earlier work
Source text: Table 1 Kunitz-type voltage-gated potassium channel toxins from animal venoms. | column: IC50 (nM) / Kv1.2

[1] = system: Kv1.1, Kv1.2, and Kv1.6 channels in rat synaptosomal membranes; conditions: ref [18], cited from earlier work; for IC50: 125I α-DTX dendrotoxin binding to synaptosomal membranes
Source text: as §1

crabs = conditions: ref [18]; cited from earlier work
[2] = system: macrophages treated with LPS; conditions: ref [68]; cited from earlier work
Source text: Kv1.3 channels have gained a prominent role for their possibility to control neuroinflammatory and autoimmune diseases. Inflammation involves several processes including the activation of inflammatory cells, the secretion of pro-inflammatory cytokines and the release of various inflammatory mediators, leading to symptoms of inflammation such as redness, swelling, fever and pain [67].

Molecule: COc1ccc2c(c1)c(CC(=O)O)c(C)n2C(=O)c1ccc(Cl)cc1 [indomethacin]
- effect on TNF-α synthesis (TNF-α): reduced the synthesis of TNF-α

Molecule: APEKTx1: APEKTx1 (P61541) from the sea anemone A. elegantissima (GTTCYCGKTIGIYWFGTKTCPSNRGYTGSCGYFLGICCYPVD; UniProt P61541 1-42, looked up)
- IC50 (Kv1.1; ref [17]): 0.9 nM
- Kv1.1 block (in words) (Kv1.1; ref [17]): selectively blocks Kv1.1 channels
- IC50 Kv1.6 (class symbol) (Kv1.6; ref [17]): -
- IC50 Shaker IR (class symbol) (Shaker IR; ref [17]): -
- trypsin inhibition (in words) (trypsin; ref [17]): effectively inhibiting trypsin
- IC50 Kv1.3 (class symbol) (Kv1.3; ref [17]): -
- IC50 Kv1.2 (class symbol) (Kv1.2; ref [17]): -

Molecule: AsKC1: AsKC1 (Q9TWG0) from A. sulcata (INKDCLLPMDVGRCRASHPRYYYNSSSKRCEKFIYGGCRGNANNFHTLEECEKVCGVR; disulfide 14-38, 30-51, 5-55 (inferred); UniProt Q9TWG0 1-58, looked up)
- IC50 (Kv1.2; ref [16]): 2800 nM

Molecule: AsKC2: AsKC2 (Q9TWF9) from A. sulcata (INKDCLLPMDVGRCRARHPRYYYNSSSRRCEKFIYGGCRGNANNFITKKECEKVCGVR; disulfide 14-38, 30-51, 5-55 (inferred); UniProt Q9TWF9 1-58, looked up)
- IC50 (Kv1.2; ref [16]): 1100 nM

Molecule: AsKC3: AsKC3 (Q9TWF8) from A. sulcata (INGDCELPKVVGRCRARFPRYYYNLSSRRCEKFIYGGCGGNANNFHTLEECEKVCGVRS; disulfide 14-38, 30-51, 5-55 (inferred); UniProt Q9TWF8 1-59, looked up)
- IC50 (Kv1.2; ref [16]): 1300 nM

Molecule: DTX-I: DTX1 (P00979) from snake Dendroaspis polylepis (QPLRKLCILHRNPGRCYQKIPAFYYNQKKKQCEGFTWSGCGGNSNRFKTIEECRRTCIRK; UniProt P00979 1-60, looked up)
- IC50 (Kv1.1; ref [48]): 3.1 nM
- IC50 (Kv1.2; ref [48]): 0.13 nM

Molecule: DTX-δ: DTX-δ (P00982) from Dendroaspis angusticeps (AAKYCKLPVRYGPCKKKIPSFYYKWKAKQCLPFDYSGCGGNANRFKTIEECRRTCVG; UniProt P00982 1-57, looked up)
- IC50 (Kv1.1; ref [49]): 0.01 nM
- IC50 (Shaker IR; ref [49]): 1000 nM

Molecule: LmKTT-1a: LmKTT-1a (P0DJ46) from scorpion Lychas mucronatus
- IC50 (Kv1.1; ref [50]): > 1000 nM
- IC50 (Kv1.3; ref [50]): 1580 ± 73 nM
- IC50 (Kv1.2; ref [50]): > 1000 nM

Molecule: ShPI-1: ShPI-1 (P31713) from S. helianthus (SICSEPKKVGRCKGYFPRFYFDSETGKCTPFIYGGCGGNGNNFETLHQCRAICRA; UniProt P31713 1-55, looked up)
- IC50 (Kv1.1; ref [19]): 117 ± 15 nM
- IC50 (Kv1.6; ref [19]): 9 ± 2 nM
- IC50 Shaker IR (class symbol) (Shaker IR; ref [19]): -
- IC50 Kv1.3 (class symbol) (Kv1.3; ref [19]): -
- IC50 (Kv1.2; ref [19]): 9 ± 2 nM

B1: SHTXIII: SHTXIII (B1B5I8) from S. haddoni (protein, UniProt B1B5I8 20-81, looked up)
KappaPI-stichotoxin-Shd2a: TEEMPALCHLQPDVPKCRGYFPRYYYNPEVGKCEQFIYGGCGGNKNNFVSFEACRATCIIPL
- IC50 ([1]; column Kv1.1, read-out: IC50 Kv1.1 (125I α-DTX binding)): 270 nM
- IC50 ([1]; column Kv1.2, read-out: IC50 Kv1.2 (125I α-DTX binding)): 270 nM
- IC50 ([1]; column Kv1.6, read-out: IC50 Kv1.6 (125I α-DTX binding)): 270 nM
- competition with the binding of α-DTX (in words) ([1]; rat synaptosomal membranes, at the level of Kv1.1, Kv1.2, and Kv1.6): competed with the binding of α-DTX
- trypsin inhibition (in words) (trypsin; ref [18]): inhibited trypsin
- paralysis of crabs (in words) (crabs): paralyzes crabs

B2: bikunin: a human Kunitz-type peptide (protein, UniProt P02760 206-352, looked up)
Inter-alpha-trypsin inhibitor …: AVLPQEEEGSGGGQLVTEVTKKEDSCQLGYSAGPCMGMTSRYFYNGTSMACETFQYGGCMGNGNNFVTEKECLQTCRTVAACNLPIVRGPCRAFIQLWAFDAVKGKCVLFPYGGCQGNGNKFYSEKECREYCGVPGDGDEELLRFSN
modifications: Inter-alpha-trypsin inhibitor light chain
notes: a human Kunitz-type peptide
- effect on production of mediators [2]: inhibits the production of thromboxane B2, TNF-α, and IL-8
